SMILES strings stand for the structures. Values joined by “and” are separate entries in the source; they are usually repeats but may differ in a detail not shown here. Equal values may be shown once. Read-outs that look alike come from different tables or passages of the source.

For assay [1], the system named is NIH Swiss mice. In words: Core body temperature measured by radiotelemetry in mice. Conditions: for Core body temperature area under the curve relative to vehicle controls: 0–10 hr, n = 5; for Depression in core body temperature compared with 30 mg/kg Δ^9-THC: 10 h time course. It is filed as in vivo, mouse.
Assay [2] has as its system NIH Swiss mice. In words: Locomotor activity measured by radiotelemetry in mice. As to conditions: for Locomotor activity (area under the curve) relative to vehicle controls: 10 h time course, n = 5. It is filed as in vivo, mouse.
Assay [3] concerns the target T1, CB1R (Mus musculus, UniProt P47746).
T1 construct: CB1Rs are endogenously expressed in abundant quantities in the CNS; from tissue; host or cells: whole brain of B6SJL mice, crude membrane homogenates
Briefly: biochemical. The assay is classed as binding. Conditions: for Fold higher CB1R affinity than Δ^9-THC: relative to Δ^9-THC Ki; for Displacement of [^3H]CP-55,940 from CB1Rs: mouse brain homogenates, data not shown.

The target of assay [4] is T1, CB1R. It is filed as biochemical. As to conditions: for Agonist type at mCB1Rs (partial or full) / Level of G-protein stimulation relative to Δ^9-THC: 10 µM; for Agonist type at mCB1Rs (partial or full): compared with full agonist CP-55,940; for G-protein stimulation ([^35S]GTPγS bound): receptor saturating concentration (10 µM), Fig. 3A.
Assay [5] deals with CB1R. Further details: method as in PMID 10940540, PMID 21079038. Conditions: read-out: Ki values previously reported; cited from earlier work.
The mark [6] stands for this setting: AM-251 10 mg/kg pretreatment, 30 mg/kg Δ^9-THC, 3 mg/kg JWH-018, 10 mg/kg M1 i.p.
[7] abbreviates: concentration-effect curve, Fig. 3B, n = 3–4.
Where [8] appears, read: Affinity (Ki) for CB1Rs, competition against 0.2 nM [^3H]CP-55,940, mouse whole brain membrane homogenates, mean ± SEM, n = 3–4.

T1 sequence (P47746 whole entry): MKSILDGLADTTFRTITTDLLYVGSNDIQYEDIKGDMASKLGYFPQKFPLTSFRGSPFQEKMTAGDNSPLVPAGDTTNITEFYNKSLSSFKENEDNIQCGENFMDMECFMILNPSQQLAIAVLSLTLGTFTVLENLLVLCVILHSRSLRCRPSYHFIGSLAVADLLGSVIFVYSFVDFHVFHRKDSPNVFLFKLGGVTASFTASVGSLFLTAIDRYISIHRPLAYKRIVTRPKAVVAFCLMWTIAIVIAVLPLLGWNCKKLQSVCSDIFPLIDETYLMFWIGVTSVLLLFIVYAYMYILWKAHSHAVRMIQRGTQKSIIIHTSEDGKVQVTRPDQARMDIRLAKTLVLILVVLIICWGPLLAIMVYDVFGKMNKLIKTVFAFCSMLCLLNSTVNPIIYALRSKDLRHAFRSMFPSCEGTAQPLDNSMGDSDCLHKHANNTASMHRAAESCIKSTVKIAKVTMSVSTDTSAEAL

In the case of `Cc1c(C(=O)NN2CCCCC2)nn(-c2ccc(Cl)cc2Cl)c1-c1ccc(I)cc1` [AM-251, reference compound], the “Core body temperature after antagonist pretreatment of cannabinoid-treated mice” value in assay [1] (setting [6]) is recorded as “restored core body temperature to control levels”. Further, the “Effect of Δ^9-THC, JWH-018 and M1 on locomotor activity after antagonist pretreatment” value in assay [2] (setting [6]) is “significantly attenuated”.
In the case of `CCCCCCC(C)(C)c1ccc([C@@H]2C[C@H](O)CC[C@H]2CCCO)c(O)c1` [CP-55,940, reference compound], the inhibitory constant (Ki) in assay [3] (competition against 0.2 nM [^3H]CP-55,940, mouse whole brain membrane homogenates, mean ± SEM, n = 3–4, read-out: Affinity (Ki) for CB1Rs) is 0.26 ± 0.12 nM. Besides, in assay [4], the “Agonist type at mCB1Rs (partial or full)” value is listed as “full” and the “G-protein stimulation ([^35S]GTPγS bound)” value came out at 0.39 ± 0.02 pmol/mg. For the same molecule, the “Maximal efficacy (Emax) of G-protein activation” value in assay [4] (setting [7]) was found to be 0.28 ± 0.02 pmol/mg. Also, the EC50 in assay [4] (concentration-effect curve, Fig. 3B, n = 3–4, read-out: EC50 of G-protein activation) came to 3.36 ± 2.35 nM.
Regarding `CCCCCn1cc(C(=O)c2cccc3ccccc23)c2ccccc21` [JWH-018, (1-pentyl-1H-indol-3-yl)-1-naphthalenyl-methanone], in assay [3] (setting [8]), the Ki was 1.2 nM and 1.22 nM. Further, the “Fold higher CB1R affinity than Δ^9-THC” value in assay [3] is roughly 10 fold. Further, in assay [1] (3 mg/kg i.p.), the “Core body temperature area under the curve relative to vehicle controls” value is listed as “significantly lower than vehicle controls” and the “Depression in core body temperature compared with 30 mg/kg Δ^9-THC” value is on record as “greater depressions”. In addition, in assay [5], the inhibition constant (Ki) was 9 nM. Besides, in assay [4], the “Level of G-protein stimulation relative to Δ^9-THC” value was “greater”, the “Agonist type at mCB1Rs (partial or full)” value is “full” and the “G-protein stimulation ([^35S]GTPγS bound)” value is 0.29 ± 0.02 pmol/mg. For the same molecule, the “Maximal efficacy (Emax) of G-protein activation” value in assay [4] (setting [7]) came out at 0.29 ± 0.02 pmol/mg. Moreover, in assay [2] (3 mg/kg i.p.), the “Locomotor activity (area under the curve) relative to vehicle controls” value was “significantly decrease”.
`CCCCCn1cc(C(=O)c2cccc3ccccc23)c2c(O)cccc21` [M1, (4-hydroxy-1-pentyl-1H-indol-3-yl)(naphthalen-1-yl)methanone]: the Ki in assay [3] (setting [8]) is 2.6 nM and 2.65 nM. In assay [3], the “Displacement of [^3H]CP-55,940 from CB1Rs” value (shortened to “Displacement”) was “completely displaced” and the “Fold higher CB1R affinity than Δ^9-THC” value was roughly 10 fold. In addition, in assay [1] (10 mg/kg i.p.), the “Core body temperature area under the curve relative to vehicle controls” value is given as “significantly lower than vehicle controls” and the “Depression in core body temperature compared with 30 mg/kg Δ^9-THC” value is “greater depressions”. Further, in assay [4], the “Level of G-protein stimulation relative to Δ^9-THC” value is on record as “greater” and the “Agonist type at mCB1Rs (partial or full)” value is given as “partial”. Besides, the “Locomotor activity (area under the curve) relative to vehicle controls” value in assay [2] (10 mg/kg i.p.) is given as “significantly decrease”.
In assay [3] (setting [8]), `CCCCCn1cc(C(=O)c2cccc3ccccc23)c2cc(O)ccc21` [M2, (5-hydroxy-1-pentyl-1H-indol-3-yl)(naphthalen-1-yl)methanone] yielded a Ki of 4.22 ± 1.16 nM. Also, in assay [3], the “Displacement” value was “completely displaced”. Besides, in assay [4], the “Level of G-protein stimulation relative to Δ^9-THC” value is recorded as “greater”, the “Agonist type at mCB1Rs (partial or full)” value was “full” and the “G-protein stimulation ([^35S]GTPγS bound)” value is 0.32 ± 0.03 pmol/mg.
For `CCCCCn1cc(C(=O)c2cccc3ccccc23)c2ccc(O)cc21` [M3, (6-hydroxy-1-pentyl-1H-indol-3-yl)(naphthalen-1-yl)methanone], the affinity in assay [3] (setting [8]), expressed as Ki, was 17.2 ± 3.58 nM. The “Displacement” value in assay [3] is listed as “completely displaced”. Besides, in assay [4], the “Level of G-protein stimulation relative to Δ^9-THC” value was “greater” and the “Agonist type at mCB1Rs (partial or full)” value is on record as “full”.
Regarding `CCCCCn1cc(C(=O)c2cccc3ccccc23)c2cccc(O)c21` [M4], in assay [3] (setting [8]), the affinity corresponds to a Ki of 20.8 ± 4.85 nM. For the same molecule, the “Displacement” value in assay [3] is listed as “completely displaced”. In assay [4], the “Level of G-protein stimulation relative to Δ^9-THC” value was “equivalent” and the “Agonist type at mCB1Rs (partial or full)” value is recorded as “partial”.
On to `O=C(c1cccc2ccccc12)c1cn(CCCCCO)c2ccccc12` [M5, (1-(5-hydroxypentyl)-1H-indol-3-yl)(naphthalen-1-yl)methanone], for which affinity in assay [3] (setting [8]) was put at a Ki of 25.2 ± 4.99 nM. In assay [3], the “Displacement” value is “completely displaced”. Also, in assay [4], the “Level of G-protein stimulation relative to Δ^9-THC” value is “greater” and the “Agonist type at mCB1Rs (partial or full)” value is given as “full”.
Regarding `O=C(O)CCCCn1cc(C(=O)c2cccc3ccccc23)c2ccccc21` [M6, 5-(3-(1-naphthoyl)-1H-indol-1-yl)pentanoic acid], in assay [3] (setting [8]), the inhibition constant Ki was greater than 10000 nM. Moreover, the “Affinity (Ki) for CB1Rs” value in assay [3] (competition against 0.2 nM [^3H]CP-55,940, mouse whole brain membrane homogenates, mean ± SEM, n = 3–4) is on record as “fails to bind”.
